Data reported in US10406207B2, “Peptide conjugates of GLP-1 receptor agonists and gastrin and their use” (priority 2010, dated 2019).
pEC50: −log10 of the molar value. Square brackets hold non-standard residues; d marks the D form. Peptide text beside a SMILES is read from it. AEEA = NCCOCCOCC(=O)O

Tests used:
human GLP-1 R = target: T1, human GLP-1 R (Homo sapiens, UniProt P43220); test: Human GLP-1 receptor efficacy assay (cAMP induction, FlashPlate); assay type: cell-based; conditions: Table 2; read-out: hGLP-1 R EC50
T1 construct: expressed in transfected cells
Experimental: On the day of analysis, growth medium was removed and the cells were washed once with 200 μl Tyrode buffer [Tyrode's Salts (9.6 g/l), 10 mM HEPES, pH 7.4]. […] The reaction was stopped by addition of 25 μl 0.5 M HCl and incubated on ice for 60 min.

human CCK-B R = target: T2, human CCK-B R (Homo sapiens, UniProt P32239); test: Human CCK-B receptor efficacy assay (AlphaScreen SureFire p-ERK); assay type: cell-based; conditions: Table 2; read-out: hCCK-B R EC50
T2 construct: expressed in transfected cells
T2 sequence (P32239 1-447): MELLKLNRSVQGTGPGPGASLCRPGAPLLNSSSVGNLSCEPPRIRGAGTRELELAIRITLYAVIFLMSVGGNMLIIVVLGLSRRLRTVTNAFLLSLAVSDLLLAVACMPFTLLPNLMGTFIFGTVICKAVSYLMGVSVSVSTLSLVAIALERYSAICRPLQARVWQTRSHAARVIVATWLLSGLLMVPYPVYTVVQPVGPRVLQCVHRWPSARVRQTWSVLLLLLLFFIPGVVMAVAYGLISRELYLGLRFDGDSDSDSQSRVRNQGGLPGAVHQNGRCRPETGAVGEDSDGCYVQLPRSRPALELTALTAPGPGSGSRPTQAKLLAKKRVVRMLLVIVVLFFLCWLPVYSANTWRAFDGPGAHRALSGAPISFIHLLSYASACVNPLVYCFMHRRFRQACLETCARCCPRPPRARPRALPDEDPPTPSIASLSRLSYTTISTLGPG

T1 sequence (P43220 24-463): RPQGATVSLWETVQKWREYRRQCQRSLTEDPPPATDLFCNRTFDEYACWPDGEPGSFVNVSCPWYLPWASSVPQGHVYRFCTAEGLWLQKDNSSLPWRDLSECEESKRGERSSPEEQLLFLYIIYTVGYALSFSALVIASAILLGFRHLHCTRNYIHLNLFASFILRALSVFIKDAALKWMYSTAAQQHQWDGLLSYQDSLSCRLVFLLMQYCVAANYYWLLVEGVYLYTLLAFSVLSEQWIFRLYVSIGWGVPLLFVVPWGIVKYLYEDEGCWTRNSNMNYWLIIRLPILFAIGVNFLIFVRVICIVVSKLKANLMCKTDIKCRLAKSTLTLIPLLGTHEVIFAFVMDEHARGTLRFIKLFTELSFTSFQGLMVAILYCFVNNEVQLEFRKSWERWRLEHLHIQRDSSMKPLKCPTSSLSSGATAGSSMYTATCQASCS

pEC50 (human GLP-1 R)	pEC50 (human CCK-B R)	SMILES
9.77	7.59	CC[C@H](C)[C@H](NC(=O)[C@H](Cc1ccccc1)NC(=O)[C@H](CC(C)C)NC(=O)[C@H](CCCNC(=N)N)NC(=O)[C@@H](NC(=O)[C@H](C)NC(=O)[C@H](CCC(=O)O)NC(=O)[C@H](CCCCN)NC(=O)[C@H](CCC(=O)O)NC(=O)[C@H](CC(C)C)NC(=O)[C@H](Cc1ccc(O)cc1)NC(=O)[C@H](CCCNC(=N)N)NC(=O)[C@H](CO)NC(=O)[C@H](CC(C)C)NC(=O)[C@H](CC(=O)O)NC(=O)[C@H](CO)NC(=O)[C@@H](NC(=O)[C@H](Cc1ccccc1)NC(=O)[C@@H](NC(=O)CNC(=O)[C@H](CCC(=O)O)NC(=O)CNC(=O)[C@@H](N)Cc1c[nH]cn1)[C@@H](C)O)[C@@H](C)O)C(C)C)C(=O)N[C@@H](CCC(=O)O)C(=O)N[C@@H](Cc1ccccc1)C(=O)N[C@@H](CC(C)C)C(=O)N[C@@H](CCCNC(=N)N)C(=O)NCCOCCOCC(=O)N[C@@H](Cc1ccc(O)cc1)C(=O)NCC(=O)N[C@@H](Cc1c[nH]c2ccccc12)C(=O)N[C@@H](CC(C)C)C(=O)N[C@@H](CC(=O)O)C(=O)N[C@@H](Cc1ccccc1)C(N)=O [Compound 92, [Arg12,27,Leu14,Lys16,Phe25,Tyr13]Exendin-4(1-27)-Peg3-[Leu4]Gastrin6] (H-HGEGTFTSDLSRYLEKEAVRLFIEFLR[AEEA]YGWLDF-NH2)
10.24	7.59	CC[C@H](C)[C@H](NC(=O)[C@H](Cc1ccccc1)NC(=O)[C@H](CC(C)C)NC(=O)[C@H](CCCCN)NC(=O)[C@@H](NC(=O)[C@H](C)NC(=O)[C@H](CCC(=O)O)NC(=O)[C@H](CCC(=O)O)NC(=O)[C@H](CCC(=O)O)NC(=O)[C@H](CC(C)C)NC(=O)[C@H](Cc1ccc(O)cc1)NC(=O)[C@H](CCCNC(=N)N)NC(=O)[C@H](CO)NC(=O)[C@H](CC(C)C)NC(=O)[C@H](CC(=O)O)NC(=O)[C@H](CO)NC(=O)[C@@H](NC(=O)[C@H](Cc1ccccc1)NC(=O)[C@@H](NC(=O)CNC(=O)[C@H](CCC(=O)O)NC(=O)CNC(=O)[C@@H](N)Cc1c[nH]cn1)[C@@H](C)O)[C@@H](C)O)C(C)C)C(=O)N[C@@H](CCC(=O)O)C(=O)N[C@@H](Cc1ccccc1)C(=O)N[C@@H](CC(C)C)C(=O)N[C@@H](CCCNC(=N)N)C(=O)NCCOCCOCC(=O)N[C@@H](Cc1ccc(O)cc1)C(=O)NCC(=O)N[C@@H](Cc1c[nH]c2ccccc12)C(=O)N[C@@H](CC(C)C)C(=O)N[C@@H](CC(=O)O)C(=O)N[C@@H](Cc1ccccc1)C(N)=O [Compound 93, [Arg12,27,Leu14,Lys20,Phe25,Tyr13]Exendin-4(1-27)-Peg3-[Leu4]Gastrin6] (H-HGEGTFTSDLSRYLEEEAVKLFIEFLR[AEEA]YGWLDF-NH2)
9.89	7.44	CC[C@H](C)[C@H](NC(=O)[C@H](Cc1ccccc1)NC(=O)[C@H](CC(C)C)NC(=O)[C@H](CCCNC(=N)N)NC(=O)[C@@H](NC(=O)[C@H](C)NC(=O)[C@H](CCC(=O)O)NC(=O)[C@H](CCC(=O)O)NC(=O)[C@H](CCC(=O)O)NC(=O)[C@H](CC(C)C)NC(=O)[C@H](Cc1ccc(O)cc1)NC(=O)[C@H](CCCNC(=N)N)NC(=O)[C@H](CO)NC(=O)[C@H](CC(C)C)NC(=O)[C@H](CC(=O)O)NC(=O)[C@H](CO)NC(=O)[C@@H](NC(=O)[C@H](Cc1ccccc1)NC(=O)[C@@H](NC(=O)CNC(=O)[C@H](CCC(=O)O)NC(=O)CNC(=O)[C@@H](N)Cc1c[nH]cn1)[C@@H](C)O)[C@@H](C)O)C(C)C)C(=O)N[C@@H](CCCCN)C(=O)N[C@@H](Cc1ccccc1)C(=O)N[C@@H](CC(C)C)C(=O)N[C@@H](CCCNC(=N)N)C(=O)NCCOCCOCC(=O)N[C@@H](Cc1ccc(O)cc1)C(=O)NCC(=O)N[C@@H](Cc1c[nH]c2ccccc12)C(=O)N[C@@H](CC(C)C)C(=O)N[C@@H](CC(=O)O)C(=O)N[C@@H](Cc1ccccc1)C(N)=O [Compound 94, [Arg12,27,Leu14,Lys24,Phe25,Tyr13]Exendin-4(1-27)-Peg3-[Leu4]Gastrin6] (H-HGEGTFTSDLSRYLEEEAVRLFIKFLR[AEEA]YGWLDF-NH2)
